In PubChem BioAssay (NCI):
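Five compound concentrations were applied to cells in 96-well plates for 48 hours; endpoints were derived by simple linear interpolation of the resulting dose-response curve. GI50 is the concentration that inhibits growth by half. At the TGI there is no net growth.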

Experiments:
Test in all cases: inhibition of tumour cell growth, NCI panel, 48 h
[1] = system: ACHN renal
[2] = system: DU-145 prostate
[3] = system: A549 NSCLC
[4] = system: PC-3 prostate
[5] = system: HT29 colon
[6] = system: RPMI-8226 leukemia
[7] = system: NCI/ADR-RES ovarian
[8] = system: SK-OV-3 ovarian
[9] = system: T-47D breast
[10] = system: MDA-MB-435
[11] = system: TK-10 renal
[12] = system: BT-549 breast
[13] = system: KM12 colon
[14] = system: SF-295 CNS
[15] = system: HCC-2998 colon
[16] = system: OVCAR-3 ovarian
[17] = system: HOP-62 NSCLC
[18] = system: SF-268 CNS
[19] = system: UACC-257 melanoma
[20] = system: A498 renal
[21] = system: SK-MEL-5 melanoma
[22] = system: SF-539 CNS
[23] = system: CAKI-1 renal
[24] = system: SNB-19 CNS
[25] = system: CCRF-CEM leukemia
[26] = system: OVCAR-8 ovarian
[27] = system: MALME-3M melanoma
[28] = system: MCF7 breast
[29] = system: HCT-15 colon
[30] = system: HCT-116 colon
[31] = system: UACC-62 melanoma
[32] = system: HS 578T breast
[33] = system: NCI-H522 lung
[34] = system: IGROV1 ovarian
[35] = system: UO-31 renal
[36] = system: LOX IMVI melanoma
[37] = system: HL-60(TB) leukemia
[38] = system: K-562 leukemia
[39] = system: SN12C renal
[40] = system: 786-0 renal
[41] = system: OVCAR-5 ovarian
[42] = system: MOLT-4 leukemia
[43] = system: M14 melanoma
[44] = system: NCI-H23 lung
[45] = system: OVCAR-4 ovarian
[46] = system: SK-MEL-2 melanoma
[47] = system: SR leukemia
[48] = system: NCI-H226 lung
[49] = system: COLO 205 colon
[50] = system: MDA-MB-468 breast
[51] = system: EKVX NSCLC
[52] = system: MDA-MB-231 breast
[53] = system: RXF 393 renal
[54] = system: NCI-H460 lung
[55] = system: SW-620 colon
[56] = system: SK-MEL-28 melanoma
[57] = system: HOP-92 NSCLC
[58] = system: U251 CNS

Q: Which results are given for `CC(=O)Nc1ccc(-n2cnc3cc(-c4ccc(O)cc4)ccc32)cc1C(F)(F)F`?
A: GI50 [1]: 6.62 µM; TGI [1]: 43.7 µM; GI50 [2]: 12.2 µM; TGI [2]: 46.9 µM; GI50 [3]: 5.34 µM; TGI [3]: > 100 µM; GI50 [4]: 8.15 µM; TGI [4]: 39.5 µM; GI50 [5]: 6.03 µM; TGI [5]: > 100 µM; GI50 [6]: 4.73 µM; TGI [6]: 27.6 µM; GI50 [7]: 2.25 µM; TGI [7]: 7.05 µM; GI50 [8]: 17 µM; TGI [8]: 61.1 µM; GI50 [9]: 4.73 µM; TGI [9]: 43.5 µM; GI50 [10]: 2.21 µM; TGI [10]: 6.17 µM; GI50 [11]: 14.8 µM; TGI [11]: 34.3 µM; GI50 [12]: 4.76 µM; TGI [12]: 20.3 µM; GI50 [13]: 3.93 µM; TGI [13]: 50.7 µM; GI50 [14]: 5.47 µM; TGI [14]: 27.5 µM; GI50 [15]: 5.31 µM; TGI [15]: 26.8 µM; GI50 [16]: 15.7 µM; TGI [16]: > 100 µM; GI50 [17]: 8.41 µM; TGI [17]: 30 µM; GI50 [18]: 7.57 µM; TGI [18]: 84.4 µM; GI50 [19]: 10.6 µM; TGI [19]: 39.3 µM; GI50 [20]: 25.6 µM; TGI [20]: 80.5 µM; GI50 [21]: 5.54 µM; TGI [21]: 32.9 µM; GI50 [22]: 6.25 µM; TGI [22]: 46.7 µM; GI50 [23]: 8.34 µM; TGI [23]: 42 µM; GI50 [24]: 14 µM; TGI [24]: > 100 µM; GI50 [25]: 6.65 µM; TGI [25]: > 100 µM; GI50 [26]: 6.6 µM; TGI [26]: 68.1 µM; GI50 [27]: 6.92 µM; TGI [27]: 51.5 µM; GI50 [28]: 4.13 µM; TGI [28]: 48.5 µM; GI50 [29]: 4.75 µM; TGI [29]: > 100 µM; GI50 [30]: 6.86 µM; TGI [30]: > 100 µM; GI50 [31]: 3.82 µM; TGI [31]: 20.6 µM; GI50 [32]: 15.3 µM; TGI [32]: 98.7 µM; GI50 [33]: 1.6 µM; TGI [33]: 4.73 µM; GI50 [34]: 14.5 µM; TGI [34]: 87 µM; GI50 [35]: 4.84 µM; TGI [35]: 21.1 µM; GI50 [36]: 5.71 µM; TGI [36]: 19.1 µM; GI50 [37]: 2.9 µM; TGI [37]: 13.5 µM; GI50 [38]: 4.53 µM; TGI [38]: > 100 µM; GI50 [39]: 4.26 µM; TGI [39]: 34.5 µM; GI50 [40]: 8.92 µM; TGI [40]: 39.1 µM; GI50 [41]: 12.2 µM; TGI [41]: 34.4 µM; GI50 [42]: 4.3 µM; TGI [42]: > 100 µM; GI50 [43]: 4.25 µM; TGI [43]: 30.6 µM; GI50 [44]: 6.2 µM; TGI [44]: 33.1 µM; GI50 [45]: 24.1 µM; TGI [45]: > 100 µM; GI50 [46]: 2.82 µM; TGI [46]: 9.73 µM; GI50 [47]: 2.58 µM; TGI [47]: 12.5 µM; GI50 [48]: 13.2 µM; TGI [48]: 58.6 µM; GI50 [49]: 11.2 µM; TGI [49]: 42.3 µM; GI50 [50]: 0.225 µM; TGI [50]: 10.8 µM; GI50 [51]: 9.92 µM; TGI [51]: 33.8 µM; GI50 [52]: 10 µM; TGI [52]: 38.2 µM; GI50 [53]: 4.31 µM; TGI [53]: 18.5 µM; GI50 [54]: 4.81 µM; TGI [54]: > 100 µM; GI50 [55]: 6.29 µM; TGI [55]: > 100 µM; GI50 [56]: 6.4 µM; TGI [56]: 35.3 µM; GI50 [57]: 11.6 µM; TGI [57]: 29.3 µM; GI50 [58]: 4.99 µM; TGI [58]: 32.4 µM
